Experiments:
[1] = type: physicochemical; conditions: densitometer, GM3 adhered to a microplate; insufficient to detect influenza virus
[2] = tested on: influenza virus A/Aichi/2/68 (H3N2); assay: TLC/virus binding assay: binding activity of ganglioside to influenza virus

SMILES | fluorescence of virus-bound compound in hydrophobic conditions [1] | sensitivity relative to conventional sialyl(α2-6)lactosylceramide [2] [times] | relative measurement intensity (response of densitometer at 620 nm minus response at 430 nm) ([2]; 6 nmol ganglioside spotted on TLC plate, reference point set equal to 100, FIG. 1) [%] | detection of influenza virus (sensitivity) ([2]; TLC/virus binding assay, A/Aichi/2/68 (H3N2)) | detection sensitivity relative to GM3 ([2]; according to FIG. 1, A/Aichi/2/68 (H3N2)) [times]
O=C1OC2(c3ccc(O)cc3Oc3cc(O)ccc32)c2ccccc21 [GM3 fluorescein] | very weak fluorescence | – | – | – | –
CCCCCCCCCCCCC/C=C/[C@@H](O)[C@H](CO[C@@H]1O[C@H](CO)[C@@H](O[C@@H]2O[C@H](CO[C@]3(C(=O)O)C[C@H](O)[C@@H](NC(C)=O)[C@H]([C@H](O)[C@H](O)CO)O3)[C@H](O)[C@H](O)[C@H]2O)[C@H](O)[C@H]1O)NC(=O)CCc1ccc(/C=C/C=C/C=C/c2ccccc2)cc1 [compound 3, O-(5-acetamide-3,5-dideoxy-D-glycero-α-D-galacto-2-nonuropyranosylonate)-(2→6)-O-(β-D-galactopyranosyl)-(1→4)-O-(β-D-glucopyranosyl)-(1→1)-(2S, 3R,4E)-2-(3-(p-(6-phenyl)1,3,5-hexatrienyl)phenylpropionamide)-4-octadecene-1,3-diol] | – | 4 | 100 | very high sensitivity | 12

— patent US6204002A, “Gangliosides having fluorescent-tagged ceramide moieties” (priority 1996, dated 2001)
